# Data published in patent US20100292214A1, “Compounds with Antiparasitic Activity, Applications thereof to the Treatment of Infectious Diseases Caused by Apicomplexans” (commissariat a l'Energie Atomique, priority 2007, published 2010).
# pIC50: −log10 of the molar value. Counter-ions that a name gives are not always drawn.
# System: asynchronous 3D7 chloroquine-sensitive P. falciparum infected red blood cells
# Assay: Labeled hypoxanthine incorporation assay (in vitro anti-malarial activity)
# Assay type: cell-based
# Settings: 3D7 chloroquine-sensitive strain, infected RBC, 48 h contact, [3H]-hypoxanthine incorporation; two independent experiments in duplicates; read-out: IC50 assessed on Plasmodium Falciparum
row,SMILES,pIC50
1,"C[C@@H](COC(=O)N1CCC(n2c(=O)[nH]c3ccccc32)CC1)N(Cc1ccccc1)Cc1ccc(Br)cc1 [Compound 116, S)-2-(benzyl(4-bromobenzyl)amino)propyl 4-(2-oxo-2,3-dihydro-1H-benzo[d]imidazol-1-yl)piperidine-1-carboxylate hydrochloride]",5.54

# Same assay, conditions: Plasmodium falciparum, 3D7, Erythrocyte, 3D7 chloroquine-sensitive strain, infected RBC, 48 h contact, [3H]-hypoxanthine incorporation; two independent experiments in duplicates; read-out: IC50 assessed on Plasmodium Falciparum
row,SMILES,pIC50
1,"C[C@@H]1CC[C@H]2[C@@H](C)C(=O)O[C@@H]3O[C@@]4(C)CC[C@@H]1[C@]32OO4 [Artemisinine, reference compound]",7.54
2,"C[C@@H](COC(=O)N1CCC(n2c(=O)n(S(=O)(=O)c3cccc4cccnc34)c3ccccc32)CC1)N(Cc1ccccc1)Cc1ccccc1 [Compound 60, (S)-2-(dibenzylamino)propyl 4-(2-oxo-3-(quinolin-8-ylsulfonyl)-2,3-dihydro-1H-benzo[d]imidazol-1-yl)piperidine-1-carboxylate]",6.11
3,"O=C(OCCN(Cc1ccccc1)Cc1ccc(OCc2ccccc2)cc1)N1CCC(n2c(=O)[nH]c3ccccc32)CC1 [Compound 100, 2-(benzyl(4-(benzyloxy)benzyl)amino)ethyl 4-(2-oxo-2,3-dihydro-1H-benzo[d]imidazol-1-yl)piperidine-1-carboxylate]",5.50
4,"O=C(OCCN(Cc1ccccc1)Cc1c(F)cccc1F)N1CCC(n2c(=O)[nH]c3ccccc32)CC1 [Compound 101, 2-(benzyl(2,6-difluorobenzyl)amino)ethyl 4-(2-oxo-2,3-dihydro-1H-benzo[d]imidazol-1-yl)piperidine-1-carboxylate]",5.27
5,"C[C@@H](COC(=O)N1CCC(n2c(=O)[nH]c3ccccc32)CC1)N(Cc1ccccc1)Cc1ccco1 [Compound 102, (S)-2-(benzyl(furan-2-ylmethyl)amino)propyl 4-(2-oxo-2,3-dihydro-1H-benzo[d]imidazol-1-yl)piperidine-1-carboxylate]",5.13
6,"O=C(OCCN(Cc1ccccc1)Cc1cccc(OCc2ccccc2)c1)N1CCC(n2c(=O)[nH]c3ccccc32)CC1 [Compound 103, 2-(benzyl(3-(benzyloxy)benzyl)amino)ethyl 4-(2-oxo-2,3-dihydro-1H-benzo[d]imidazol-1-yl)piperidine-1-carboxylate]",5.45
7,"O=C(OCCN(C/C=C/c1ccccc1)Cc1ccccc1)N1CCC(n2c(=O)[nH]c3ccccc32)CC1 [Compound 104, (E)-2-(benzyl(cinnamyl)amino)ethyl 4-(2-oxo-2,3-dihydro-1H-benzo[d]imidazol-1-yl)piperidine-1-carboxylate]",5.30
8,"CC(C)(C)OC(=O)N(Cc1ccccc1)[C@H](COC(=O)N1CCC(n2c(=O)[nH]c3ccccc32)CC1)Cc1ccccc1 [Compound 106, (S)-2-(benzyl(tert-butoxycarbonyl)amino)-3-phenylpropyl 4-(2-oxo-2,3-dihydro-1H-benzo[d]imidazol-1-yl)piperidine-1-carboxylate]",6.08
9,"CC(C)[C@@H](COC(=O)N1CCC(n2c(=O)[nH]c3ccccc32)CC1)N(Cc1ccccc1)Cc1ccccc1 [Compound 107, (S)-2-(dibenzylamino)-3-methylbutyl 4-(1,2-dihydro-2-oxobenzo[d]imidazol-3-yl)piperidine-1-carboxylate]",5.55
10,"CC(C)(C)C(COC(=O)N1CCC(n2c(=O)[nH]c3ccccc32)CC1)N(Cc1ccccc1)Cc1ccccc1 (centres unmarked) [Compound 109, 2-(dibenzylamino)-3,3-dimethylbutyl 4-(1,2-dihydro-2-oxobenzo[d]imidazol-3-yl)piperidine-1-carboxylate]",5.62
11,"CC(C)(COC(=O)N1CCC(n2c(=O)[nH]c3ccccc32)CC1)N(Cc1ccccc1)Cc1ccccc1 [Compound 111, 2-(dibenzylamino)-2-methylpropyl 4-(1,2-dihydro-2-oxobenzo[d]imidazol-3-yl)piperidine-1-carboxylate]",5.64
12,"C[C@@H](COC(=O)N1CCC(n2c(=O)[nH]c3ccccc32)CC1)N(Cc1ccccc1)Cc1ccc([N+](=O)[O-])cc1 [Compound 113, (S)-2-(benzyl(4-nitrobenzyl)amino)propyl 4-(2-oxo-2,3-dihydro-1H-benzo[d]imidazol-1-yl)piperidine-1-carboxylate]",5.61
13,"COc1ccc(CN(CCCOC(=O)N2CCC(n3c(=O)[nH]c4ccccc43)CC2)Cc2ccccc2)cc1 [Compound 117, 3-(benzyl(4-methoxybenzyl)amino)propyl 4-(2-oxo-2,3-dihydro-1H-benzo[d]imidazol-1-yl)piperidine-1-carboxylate hydrochloride]",5.73
14,"O=C(OCCN(Cc1ccccc1)Cc1cccc(Cl)c1)N1CCC(n2c(=O)[nH]c3ccccc32)CC1 [Compound 124, 2-(benzyl(3-chlorobenzyl)amino)ethyl 4-(2-oxo-2,3-dihydro-1H-benzo[d]imidazol-1-yl)piperidine-1-carboxylate hydrochloride]",5.48
15,"C[C@@H](COC(=O)N1CCC(n2c(=O)[nH]c3ccccc32)CC1)N(Cc1ccccc1)Cc1cccc(Oc2ccccc2)c1 [Compound 127, (S)-2-(benzyl(3-phenoxybenzyl)amino)propyl 4-(2-oxo-2,3-dihydro-1H-benzo[d]imidazol-1-yl)piperidine-1-carboxylate hydrochloride]",5.57
16,"C[C@@H](COC(=O)N1CCC(n2c(=O)[nH]c3ccccc32)CC1)N(Cc1ccccc1)Cc1ccc(Cl)cc1 [Compound 129, (S)-2-(benzyl(4-chlorobenzyl)amino)propyl 4-(2-oxo-2,3-dihydro-1H-benzo[d]imidazol-1-yl)piperidine-1-carboxylate hydrochloride]",5.44
17,"O=C(OCCN(Cc1ccccc1)Cc1cccc2ccccc12)N1CCC(n2c(=O)[nH]c3ccccc32)CC1 [Compound 130, 2-(benzyl(naphthalen-1-ylmethyl)amino)ethyl 4-(2-oxo-2,3-dihydro-1H-benzo[d]imidazol-1-yl)piperidine-1-carboxylate hydrochloride]",5.41
18,"O=C(OCCCN(Cc1ccccc1)Cc1cccnc1)N1CCC(n2c(=O)[nH]c3ccccc32)CC1 [Compound 134, 3-(benzyl(pyridin-3-ylmethyl)amino)propyl 4-(2-oxo-2,3-dihydro-1H-benzo[d]imidazol-1-yl)piperidine-1-carboxylate hydrochloride]",5.89
19,"O=C(OCCCN(CCOCc1ccccc1)Cc1ccccc1)N1CCC(n2c(=O)[nH]c3ccccc32)CC1 [Compound 143, 3-(benzyl(2-(benzyloxy)ethyl)amino)propyl 4-(2-oxo-2,3-dihydro-1H-benzo[d]imidazol-1-yl)piperidine-1-carboxylate hydrochloride]",5.37
20,"O=C(OCCCN(Cc1ccccc1)Cc1ccc(F)cc1)N1CCC(n2c(=O)[nH]c3ccccc32)CC1 [Compound 147, 3-(benzyl(4-fluorobenzyl)amino)propyl 4-(2-oxo-2,3-dihydro-1H-benzo[d]imidazol-1-yl)piperidine-1-carboxylate hydrochloride]",5.65
21,"O=C(OCCCN(CCCc1ccccc1)Cc1ccccc1)N1CCC(n2c(=O)[nH]c3ccccc32)CC1 [Compound 148, 3-(benzyl(3-phenylpropyl)amino)propyl 4-(2-oxo-2,3-dihydro-1H-benzo[d]imidazol-1-yl)piperidine-1-carboxylate hydrochloride]",5.34
22,"COc1ccccc1CN(CCOC(=O)N1CCC(n2c(=O)[nH]c3ccccc32)CC1)Cc1ccccc1 [Compound 151, 2-(benzyl(2-methoxybenzyl)amino)ethyl 4-(2-oxo-2,3-dihydro-1H-benzo[d]imidazol-1-yl)piperidine-1-carboxylate]",5.33
23,"CCCc1ccc(S(=O)(=O)N(c2ccccc2)C2CCN(C(=O)OC[C@H](C)N(Cc3ccccc3)Cc3ccccc3)CC2)cc1 [Compound 154, (S)-2-(dibenzylamino)propyl 4-(N-phenyl-4-propylphenylsulfonamido)piperidine-1-carboxylate]",5.80
24,"COc1ccc(S(=O)(=O)N(c2ccccc2)C2CCN(C(=O)OC[C@H](Cc3ccccc3)N(Cc3ccccc3)Cc3ccccc3)CC2)cc1 [Compound 157, (S)-2-(dibenzylamino)-3-phenylpropyl 4-(N-phenyl-4-methoxyphenylsulfonamido)piperidine-1-carboxylate]",6.08
25,"C[C@@H](COC(=O)N1CCC(N(c2ccccc2)S(=O)(=O)c2ccc(C(F)(F)F)cc2)CC1)N(Cc1ccccc1)Cc1ccccc1 [Compound 158, (S)-2-(dibenzylamino)propyl 4-(N-phenyl-4-(trifluoromethyl)phenylsulfonamido)piperidine-1-carboxylate]",6.45
26,"C[C@@H](COC(=O)N1CCC(N(c2ccccc2)S(=O)(=O)c2cccc3ccccc23)CC1)N(Cc1ccccc1)Cc1ccccc1 [Compound 161, (S)-2-(dibenzylamino)propyl 4-(N-phenyl-naphthalen-1-ylsulfonamido)piperidine-1-carboxylate]",6.54
27,"O=C(OC[C@H](Cc1ccccc1)N(Cc1ccccc1)Cc1ccccc1)N1CCC(N(c2ccccc2)S(=O)(=O)c2cccc3ccccc23)CC1 [Compound 162, (S)-2-(dibenzylamino)-3-phenylpropyl 4-(N-phenyl-naphthalen-1-ylsulfonamido)piperidine-1-carboxylate]",5.88
28,"C[C@@H](COC(=O)N1CCC(Nc2ccccc2S(=O)(=O)c2ccccc2)CC1)N(Cc1ccccc1)Cc1ccccc1 [Compound 164, (S)-2-(dibenzylamino)propyl 4-(2-(phenylsulfonyl)phenylamino)piperidine-1-carboxylate]",5.90
29,"C[C@@H](COC(=O)N1CCC(N(C)c2ccccc2)CC1)N(Cc1ccccc1)Cc1ccccc1 [Compound 166, (S)-2-(dibenzylamino)propyl 4-(N-methyl-N-phenylamino)piperidine-1-carboxylate]",5.43

# Same assay, conditions: Plasmodium falciparum, 3D7, Erythrocyte, read-out: IC50 assessed on Plasmodium Falciparum
row,SMILES,pIC50
1,"C[C@H]1[C@H](OC(=O)CCC(=O)O)O[C@@H]2O[C@@]3(C)CC[C@H]4[C@H](C)CC[C@@H]1[C@@]24OO3 [Artesunate, reference compound]",8.01
2,"CCN(CC)CCCC(C)Nc1ccnc2cc(Cl)ccc12 (centres unmarked) [Chloroquine, reference compound]",7.99
